Data as given in patent publication US20250188110A1, “SPECIFIC SMALL MOLECULE INHIBITORS THAT BLOCK KMT9 METHYLTRANSFERASE ACTIVITY AND FUNCTION” (ALBERT-LUDWIGS-UNIVERSITÄT FREIBURG, priority 2021, published 2025).

Key:
KMT9 [1] = target: T1, KMT9 (Homo sapiens, UniProt Q9Y5N5); test: Microscale thermophoresis (MST) KMT9 binding; conditions: microscale thermophoresis, His-tag labelled KMT9 (20 nM); read-out: MST
T1 sequence (Q9Y5N5 1-214): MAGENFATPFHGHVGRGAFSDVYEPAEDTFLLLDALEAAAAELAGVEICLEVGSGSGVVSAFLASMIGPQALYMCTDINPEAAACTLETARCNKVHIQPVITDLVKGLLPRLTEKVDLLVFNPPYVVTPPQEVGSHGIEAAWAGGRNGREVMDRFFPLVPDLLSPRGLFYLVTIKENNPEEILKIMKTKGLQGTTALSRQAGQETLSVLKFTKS
T1 sequence (Q9UI30 1-120 isoform Q9UI30-2 partner): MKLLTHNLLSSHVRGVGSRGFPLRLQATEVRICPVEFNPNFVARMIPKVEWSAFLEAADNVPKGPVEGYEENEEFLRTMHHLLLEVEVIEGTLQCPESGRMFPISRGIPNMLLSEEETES
Outline: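 Kd from microscale thermophoresis: compound series against 20 nM His-KMT9 labelled via RED-Tris-NTA, buffer 25 mM HEPES (pH 7.5)/100 mM NaCl/1 mM DTT/0.05% Tween, 40% MST power, 100% LED. Reported as classes: A ≤10 nM, B >10–100 nM, C >100–1000 nM, D >1000 nM.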

KMT9 [2] = target: T1, KMT9; test: KMT9 thermal shift assay (SyproOrange); format: binding; conditions: ΔTm; 500 µM compound, 2 μM KMT9, 5X SO; read-out: Thermal shift
Outline: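 ΔTm versus DMSO-only control is reported in bins (>20 K, 15–20 K, 10–15 K, ≤10 K), using Tm from Boltzmann sigmoidal fits of SyproOrange melt curves. KMT9 with compound in pH 8.5 BTP buffer containing MgCl2 and DTT was preincubated at 25° C, then ramped 1° C per 15 s up to 95° C.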

KMT9 [3] = target: T1, KMT9; test: KMT9 methyltransferase inhibition assay, 3H-SAM scintillation (entries 1-154); format: biochemical; conditions: entries 1-154: 3H-SAM assay, 25 nM KMT9, 5 μM ETF1
Outline: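 Tritium transfer from SAM (0.3 μM 3H-SAM, 0.7 μM unlabelled, final) to 5 μM ETF1 fragment by 25 nM KMT9 was measured after 2 h at 30° C, pH 8.5. Precipitated peptide was collected on filters and scintillation counted; IC50 came from a four-parameter fit of inhibition normalised to controls.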

Kd (KMT9 [1]) [nM]	ΔTm at 500 µM (KMT9 [2]) [°C]	IC50 (KMT9 [3]) [nM]	SMILES
> 1000	≤ 10	> 10000	CNc1ncnc2c1ccn2[C@@H]1C[C@H](CN(CCCNCCc2ccccc2)c2ccccc2)[C@@H](O)[C@H]1O [440 (312), (1R,2S,3R,5R)-3-(4-(Methylamino)-7H-pyrrolo[2,3-d]pyrimidin-7-yl)-5-(((3-(phenethylamino)propyl)(phenyl)amino)methyl)cyclopentane-12-diol]
> 1000	≤ 10	> 10000	CNc1ncnc2c1ccn2[C@@H]1C[C@H](C(=O)NCC2CCNCC2)[C@@H](O)[C@H]1O [346 (250), (1S,2R,3S,4R)-2,3-dihydroxy-4-(4-(methylamino)-7H-pyrrolo[2,3-d]pyrimidin-7-yl)-N-(piperidin-4-ylmethyl) cyclopentane-1-carboxamide]
> 1000	≤ 10	> 10000	CNc1ncnc2c1ccn2[C@@H]1C[C@H](CSCCN)[C@@H](O)[C@H]1O [430 (302), (1S,2R,3S,5R)-3-(((2-Aminoethyl)thio)methyl)-5-(4-(methylamino)-7H-pyrrolo[2,3-d]pyrimidin-7-yl) cyclopentane-1,2-diol]
> 1000	≤ 10	> 10000	CNc1ncnc2c1ccn2[C@@H]1C[C@H](CN(CCCNCCc2ccc3ccccc3c2)CC(F)(F)F)[C@@H](O)[C@H]1O [377 (281), (1R,2S,3R,5R)-3-(4-(methylamino)-7H-pyrrolo[2,3-d]pyrimidin-7-yl)-5-(((3-((2-(naphthalen-2-yl)ethyl)amino)propyl)(2,2,2-trifluoroethyl)amino)methyl) cyclopentane-1,2-diol]
100 to 1000	≤ 10	> 10000	CNc1ncnc2c1ccn2[C@@H]1C[C@H](CN(CCCNCCc2cccc(Oc3ccccc3)c2)CC2CC2)[C@@H](O)[C@H]1O [360 (270)]
100 to 1000	15 to 20	100 to 1000	Nc1ncnc2c1c(I)cn2[C@@H]1C[C@H](CNCCCNCCc2ccccc2)[C@@H](O)[C@H]1O [343 (246)]
100 to 1000	≤ 10	> 10000	CCc1cn([C@@H]2C[C@H](CNCCCNCCc3ccccc3)[C@@H](O)[C@H]2O)c2ncncc12 [Compound 609, (1R,2S,3R,5R)-3-{5-ethylpyrrolo[2,3-d]pyrimidin-7-yl}-5-[({3-[(2-phenylethyl)amino]propyl}amino)methyl]cyclopentane-1,2-diol]
> 1000	≤ 10	> 10000	CNc1ncnc2c1ccn2[C@@H]1C[C@H](/C=C/CCCNCCc2ccccc2)[C@@H](O)[C@H]1O [425 (296), (1R,2S,3R,5R)-3-(4-(methylamino)-7H-pyrrolo[2,3-d]pyrimidin-7-yl)-5-((E)-5-(phenethylamino)pent-1-en-1-yl) cyclopentane-1,2-diol]
> 1000	≤ 10	1000 to 10000	CNc1ncnc2c1ccn2[C@@H]1C[C@H](CN(CCCN)c2cncs2)[C@@H](O)[C@H]1O [437 (309), (1S,2R,3R,5R)-3-{[(3-Aminopropyl)(1,3-thiazol-5-yl)amino]methyl}-5-[4-(methylamino)pyrrolo[2,3-d]pyrimidin-7-yl]cyclopentane-1,2-diol]
100 to 1000	15 to 20	1000 to 10000	Nc1ncnc2c1c(C1CC1)cn2[C@@H]1C[C@H](CNCCCNCCc2ccccc2)[C@@H](O)[C@H]1O [468 (342), (1R,2S,3R,5R)-3-(4-Amino-5-cyclopropyl-7H-pyrrolo[2,3-d]pyrimidin-7-yl)-5-(((3-(phenethylamino)propyl)amino)methyl) cyclopentane-1,2-diol]
> 1000	10 to 15	1000 to 10000	CN1CC=C(c2cn([C@@H]3C[C@H](CNCCCNCCc4ccccc4)[C@@H](O)[C@H]3O)c3ncnc(N)c23)CC1 [482 (356), (1R,2S,3R,5R)-3-(4-amino-5-(1-methyl-1,2,3,6-tetrahydropyridin-4-yl)-7H-pyrrolo[2,3-d]pyrimidin-7-yl)-5-(((3-(phenethylamino)propyl)amino)methyl) cyclopentane-1,2-diol]
> 1000	≤ 10	> 10000	Nc1ncnc2c1ncn2[C@@H]1O[C@H](C(=O)NCCCNC(=O)Cc2ccccc2)[C@@H](O)[C@H]1O [303 (200)]
> 1000	≤ 10	> 10000	CNc1ncnc2c1ccn2[C@@H]1C[C@H](C(=O)NCC2CCCCN2)[C@@H](O)[C@H]1O (stereo partly drawn) [350 (254), (1S,2R,3S,4R)-2,3-dihydroxy-4-(4-(methylamino)-7H-pyrrolo[2,3-d]pyrimidin-7-yl)-N-(piperidin-2-ylmethyl) cyclopentane-1-carboxamide]
> 1000	≤ 10	> 10000	CNc1ncnc2c1ccn2[C@@H]1C[C@H](CN(CCCN)c2cn[nH]c2Br)[C@@H](O)[C@H]1O [Compound 606, (1S,2R,3R,5R)-3-{[(3-Aminopropyl)(3-bromo-2H-pyrazol-4-yl)amino]methyl}-5-[4-(methylamino)pyrrolo[2,3-d]pyrimidin-7-yl]cyclopentane-1,2-diol]
> 1000	≤ 10	> 10000	CNc1ncnc2c1ccn2[C@@H]1C[C@H](Cn2ccnc2CCCNCCc2cccc(Oc3ccccc3)c2)[C@@H](O)[C@H]1O [326 (229), (1R,2S,3R,5R)-3-(4-(methylamino)-7H-pyrrolo[2,3-d]pyrimidin-7-yl)-5-((2-(3-((3-phenoxyphenethyl)amino)propyl)-1H-imidazol-1-yl)methyl) cyclopentane-1,2-diol]
10 to 100	15 to 20	1000 to 10000	Nc1ncnc2c1c(-c1nccs1)cn2[C@@H]1C[C@H](CNCCCNCCc2ccccc2)[C@@H](O)[C@H]1O [474 (348), (1R,2S,3R,5R)-3-(4-Amino-5-(thiazol-2-yl)-7H-pyrrolo[2,3-d]pyrimidin-7-yl)-5-(((3-(phenethylamino)propyl)amino)methyl) cyclopentane-1,2-diol]
> 1000	≤ 10	> 10000	CNc1ncnc2c1ccn2[C@@H]1C[C@H](CNCCCNCc2ccc(Oc3ccccc3)cc2)[C@@H](O)[C@H]1O [332 (236), (1R,2S,3R,5R)-3-(4-(methylamino)-7H-pyrrolo[2,3-d]pyrimidin-7-yl)-5-(((3-((4-phenoxybenzyl)amino)propyl)amino)methyl) cyclopentane-1,2-diol]
10 to 100	15 to 20	100 to 1000	Nc1ncnc2c1c(-c1ncn[nH]1)cn2[C@@H]1C[C@H](CNCCCNCCc2ccccc2)[C@@H](O)[C@H]1O [475 (349), (1R,2S,3R,5R)-3-(4-amino-5-(1H-1,2,4-triazol-5-yl)-7H-pyrrolo[2,3-d]pyrimidin-7-yl)-5-(((3-(phenethylamino)propyl)amino)methyl) cyclopentane-1,2-diol]
> 1000	≤ 10	> 10000	CNc1ncnc2c1ccn2[C@@H]1C[C@H](CSCCNCCc2ccccc2)[C@@H](O)[C@H]1O [431 (303), (1R,2S,3R,5S)-3-(4-(Methylamino)-7H-pyrrolo[2,3-d]pyrimidin-7-yl)-5-(((2-(phenethylamino)ethyl)thio)methyl) cyclopentane-1,2-diol]
> 1000	≤ 10	> 10000	Nc1ncnc2c1ncn2[C@@H]1O[C@H](C(=O)NCCCNC(=O)Nc2ccccc2)[C@@H](O)[C@H]1O [684 (202), (2S,3S,4R,5R)-5-(6-amino-9H-purin-9-yl)-3,4-dihydroxy-N-(3-(3-phenylureido)propyl) tetrahydrofuran-2-carboxamide]
100 to 1000	15 to 20	100 to 1000	Cn1ccc(-c2cn([C@@H]3C[C@H](CNCCCNCCc4ccccc4)[C@@H](O)[C@H]3O)c3ncnc(N)c23)n1 [476 (350), (1R,2S,3R,5R)-3-(4-Amino-5-(1-methyl-1H-pyrazol-3-yl)-7H-pyrrolo[2,3-d]pyrimidin-7-yl)-5-(((3-(phenethylamino)propyl)amino)methyl) cyclopentane-1,2-diol]
> 1000	≤ 10	> 10000	CNc1ncnc2c1ccn2[C@@H]1C[C@H](CNC[C@H]2CCCNC2)[C@@H](O)[C@H]1O [436 (308), (1R,2S,3R,5R)-3-[4-(Methylamino)pyrrolo[2,3-d]pyrimidin-7-yl]-5-({[(3S)-piperidin-3-ylmethyl]amino}methyl) cyclopentane-1,2-diol]
